Results on 26 compounds are retold here after PubChem BioAssay (NCI).

“And” between values parts separate entries of the source, which are not always exact repeats. Equal values may be shown once.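 Following 48 hours of exposure in 96-well plates, responses at five concentrations were used to interpolate endpoints linearly. The concentration for 50% growth inhibition is given as GI50. Definition used: TGI = concentration required for complete inhibition of growth.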

In one test the test system is UO-31 renal. Kind of test: NCI tumour cell line growth inhibition, 48 h.
Consider `CN(C)CCCOC(=O)C(c1ccccc1)C1(O)CCSCC1` (configuration not stated), for which the TGI is more than 100 µM.

Turning to `COCOC1/C=C/CCCCC2=C(C)C=C(C1)O2` (configuration not stated), the TGI was more than 100 µM.

On to `O=C(O)c1cc2c(cc1CC(Cc1ccc3c(c1)CCC3)C(=O)O)CCC2` (configuration not stated), for which the TGI is more than 100 µM.

The compound `C[C@@]12[C@H]3CC[C@@H]1[C@H](O)C(=O)N2CC3` gave a TGI of more than 100 µM.

In turn, `CC(C)=CCOC(=O)C(C)=[N+]=[N-]` yielded a TGI of more than 100 µM.

`Cc1ccc([C@@H]2[C@@H](C(=O)c3ccccn3)[C@H](c3ccc(C)cc3)C[C@](O)(c3ccccn3)[C@H]2C(=O)c2ccccn2)cc1`: the TGI is more than 100 µM.

`O=C(Nc1ccc(Br)cc1)c1c(-c2ccccc2)c2ccc(O)cc2oc1=O`: the TGI was more than 10 µM.

As to `O=C1C(Cl)=C(N2CCN(C3=C(Cl)C(=O)c4ccccc4C3=O)CC2)C(=O)c2ccccc21`, the TGI was 3.39 µM.

In turn, `CC(C)(N=NC(C)(C)C(=O)NCCO)C(=O)NCCO` had a TGI of more than 100 µM.

The compound `CCOc1cc(NC(C)=O)ccc1C(=O)NNC(=O)c1ccccc1OC(C)=O` came in with a TGI of more than 100 µM.

As to `c1ccc2c(c1)OC(N1CCCC1)c1cnc(N3CCCC3)nc1-2` (configuration not stated), the TGI is 87.7 µM.

Regarding `CC(C)c1ccc2[nH]c(O)c(-c3[nH]c4ccccc4c3N=O)c2c1`, the TGI amounted to 12 µM.

For the compound `CCCCCCCCCCCCCCCCCCNc1ccn(C2OC(COP(=O)(O)OCC3OC(n4ccc(NC(=O)CCCCCCCCCCCCCCCCC)nc4=O)C(OC(C)=O)C3OC(C)=O)C(OC(C)=O)C2OC(C)=O)c(=O)n1` (configuration not stated), the TGI is more than 100 µM.

A further test relates to OVCAR-3 ovarian. The test is described as follows: NCI tumour cell line growth inhibition, 48 h.
Turning to `COc1ccccc1N/C(=C\C(=O)C(=O)NC12CC3CC(CC(C3)C1)C2)c1ccccc1`, the TGI was more than 10 µM.

The compound `Cc1c(F)c(N)c2c(=O)cc(-c3ccc(NC(=O)CN(C)C)c(F)c3)oc2c1F` registered a TGI of more than 60.9 µM.

`COc1cccc2c(N)c3cccc(C(=O)NCCN(C)C)c3nc12`: the TGI came to 1.7 µM.

Compound `O=C(CCCCCCCCC(=O)NN1C(=O)/C(=C\c2ccc(O)c(O)c2)SC1c1ccc(Cl)cc1)NN1C(=O)/C(=C\c2ccc(O)c(O)c2)SC1c1ccc(Cl)cc1` (configuration not stated) came in with a TGI of more than 100 µM.

In turn, `CC(C)Sc1nc(C#N)cc2c1CCCC2` returned a TGI of more than 100 µM.

Take `CN1C(=O)N(c2ccccc2)C2(CCN(CC3COc4ccccc4O3)CC2)C1=O` (configuration not stated): the TGI is 89.2 µM.

In turn, `O=C1/C(=C/c2ccccc2)N=C(c2ccccc2)N1n1c(-c2ccccc2)nc2ccccc2c1=O` returned a TGI of more than 100 µM.

In turn, `O=c1nc(N2CCN(c3ccccc3)CC2)ccn1C1OC(CO)C(O)C1O` (configuration not stated) had a TGI of more than 100 µM.

As for `OCCCCCNc1c2ccccc2nc2ccccc12`, the TGI was more than 28.8 µM.

Compound `CCOP(=O)(OCC)/C(C#N)=C/c1cnc(-c2ccccc2)[nH]1` showed a TGI of more than 100 µM.

`CC(=O)OCC1OC(OC(C)(C)CC/C=C(\C)[C@@H]2C/C=C(\C)CC/C=C(\C)CC2)C(O)C(O)C1OC(C)=O` (some centres not stated): the GI50 was 53.3 µM and 15.3 µM; the TGI is > 100 µM and 28.6 µM.

In the case of `O=C(O)c1c2c(cc3c1CC1(Cc4ccccc4C1)C3)CCC2`, the TGI is more than 100 µM.

`Cc1nc(-c2ccc([N+](=O)[O-])cc2)cn2c1nc1ccccc12` had a TGI of more than 100 µM.

In the case of `CN(C)CCCOC(=O)C(c1ccccc1)C1(O)CCSCC1` (configuration not stated), the TGI is more than 100 µM.

As for `COCOC1/C=C/CCCCC2=C(C)C=C(C1)O2` (configuration not stated), the TGI is more than 100 µM.

`O=C(O)c1cc2c(cc1CC(Cc1ccc3c(c1)CCC3)C(=O)O)CCC2` (configuration not stated) showed a TGI of more than 100 µM.

Turning to `C[C@@]12[C@H]3CC[C@@H]1[C@H](O)C(=O)N2CC3`, the TGI is more than 100 µM.

`CC(C)=CCOC(=O)C(C)=[N+]=[N-]` gave a TGI of more than 100 µM.

Compound `Cc1ccc([C@@H]2[C@@H](C(=O)c3ccccn3)[C@H](c3ccc(C)cc3)C[C@](O)(c3ccccn3)[C@H]2C(=O)c2ccccn2)cc1` yielded a TGI of more than 64.4 µM.

With `O=C(Nc1ccc(Br)cc1)c1c(-c2ccccc2)c2ccc(O)cc2oc1=O`, the TGI was more than 10 µM.

Compound `O=C1C(Cl)=C(N2CCN(C3=C(Cl)C(=O)c4ccccc4C3=O)CC2)C(=O)c2ccccc21` came in with a TGI of 3.02 µM.

Compound `CC(C)(N=NC(C)(C)C(=O)NCCO)C(=O)NCCO` came in with a TGI of more than 100 µM.

For `CCOc1cc(NC(C)=O)ccc1C(=O)NNC(=O)c1ccccc1OC(C)=O`, the TGI was more than 100 µM.

Consider `c1ccc2c(c1)OC(N1CCCC1)c1cnc(N3CCCC3)nc1-2` (configuration not stated), for which the TGI was 97.5 µM.

Turning to `CC(C)c1ccc2[nH]c(O)c(-c3[nH]c4ccccc4c3N=O)c2c1`, the TGI stood at 20.7 µM.

In the case of `CCCCCCCCCCCCCCCCCCNc1ccn(C2OC(COP(=O)(O)OCC3OC(n4ccc(NC(=O)CCCCCCCCCCCCCCCCC)nc4=O)C(OC(C)=O)C3OC(C)=O)C(OC(C)=O)C2OC(C)=O)c(=O)n1` (configuration not stated), the TGI was more than 100 µM.

The test system of the next test is MCF7 breast. The test is described as follows: NCI tumour cell line growth inhibition, 48 h.
Compound `COc1ccccc1N/C(=C\C(=O)C(=O)NC12CC3CC(CC(C3)C1)C2)c1ccccc1` showed a TGI of more than 10 µM.

As for `Cc1c(F)c(N)c2c(=O)cc(-c3ccc(NC(=O)CN(C)C)c(F)c3)oc2c1F`, the TGI was more than 66.1 µM.

`COc1cccc2c(N)c3cccc(C(=O)NCCN(C)C)c3nc12` showed a TGI of 1.57 µM.

In the case of `O=C(CCCCCCCCC(=O)NN1C(=O)/C(=C\c2ccc(O)c(O)c2)SC1c1ccc(Cl)cc1)NN1C(=O)/C(=C\c2ccc(O)c(O)c2)SC1c1ccc(Cl)cc1` (configuration not stated), the TGI was more than 100 µM.

`CC(C)Sc1nc(C#N)cc2c1CCCC2` yielded a TGI of more than 100 µM.

Regarding `CN1C(=O)N(c2ccccc2)C2(CCN(CC3COc4ccccc4O3)CC2)C1=O` (configuration not stated), the TGI was more than 100 µM.

For the compound `O=C1/C(=C/c2ccccc2)N=C(c2ccccc2)N1n1c(-c2ccccc2)nc2ccccc2c1=O`, the TGI is more than 100 µM.

The compound `O=c1nc(N2CCN(c3ccccc3)CC2)ccn1C1OC(CO)C(O)C1O` (configuration not stated) yielded a TGI of more than 100 µM.

In turn, `OCCCCCNc1c2ccccc2nc2ccccc12` yielded a TGI of 6.11 µM.

For the compound `CCOP(=O)(OCC)/C(C#N)=C/c1cnc(-c2ccccc2)[nH]1`, the TGI was more than 100 µM.

For the compound `CC(=O)OCC1OC(OC(C)(C)CC/C=C(\C)[C@@H]2C/C=C(\C)CC/C=C(\C)CC2)C(O)C(O)C1OC(C)=O` (some centres not stated), the GI50 was 52 µM and 23.9 µM; the TGI was > 100 µM and 64.8 µM.

`O=C(O)c1c2c(cc3c1CC1(Cc4ccccc4C1)C3)CCC2`: the TGI was more than 100 µM.

Turning to `Cc1nc(-c2ccc([N+](=O)[O-])cc2)cn2c1nc1ccccc12`, the TGI was more than 100 µM.

With `CN(C)CCCOC(=O)C(c1ccccc1)C1(O)CCSCC1` (configuration not stated), the TGI is more than 100 µM.

Regarding `COCOC1/C=C/CCCCC2=C(C)C=C(C1)O2` (configuration not stated), the TGI is more than 100 µM.

Take `O=C(O)c1cc2c(cc1CC(Cc1ccc3c(c1)CCC3)C(=O)O)CCC2` (configuration not stated): the TGI is more than 100 µM.

`C[C@@]12[C@H]3CC[C@@H]1[C@H](O)C(=O)N2CC3` displayed a TGI of more than 100 µM.

Turning to `CC(C)=CCOC(=O)C(C)=[N+]=[N-]`, the TGI is more than 100 µM.

In the case of `Cc1ccc([C@@H]2[C@@H](C(=O)c3ccccn3)[C@H](c3ccc(C)cc3)C[C@](O)(c3ccccn3)[C@H]2C(=O)c2ccccn2)cc1`, the TGI is more than 100 µM.

The compound `O=C(Nc1ccc(Br)cc1)c1c(-c2ccccc2)c2ccc(O)cc2oc1=O` showed a TGI of more than 10 µM.

Regarding `O=C1C(Cl)=C(N2CCN(C3=C(Cl)C(=O)c4ccccc4C3=O)CC2)C(=O)c2ccccc21`, the TGI is 3.34 µM.

For the compound `CC(C)(N=NC(C)(C)C(=O)NCCO)C(=O)NCCO`, the TGI is more than 100 µM.

In turn, `CCOc1cc(NC(C)=O)ccc1C(=O)NNC(=O)c1ccccc1OC(C)=O` returned a TGI of more than 100 µM.

`c1ccc2c(c1)OC(N1CCCC1)c1cnc(N3CCCC3)nc1-2` (configuration not stated) displayed a TGI of 52.9 µM.

`CC(C)c1ccc2[nH]c(O)c(-c3[nH]c4ccccc4c3N=O)c2c1`: the TGI came out at 5.71 µM.

`CCCCCCCCCCCCCCCCCCNc1ccn(C2OC(COP(=O)(O)OCC3OC(n4ccc(NC(=O)CCCCCCCCCCCCCCCCC)nc4=O)C(OC(C)=O)C3OC(C)=O)C(OC(C)=O)C2OC(C)=O)c(=O)n1` (configuration not stated) showed a TGI of more than 100 µM.
